The source of these data is patent publication US7605272B2, “IGF-1R inhibitor” (Kyowa Hakko Kirin Co., Ltd., priority 2005, dated 2009).

Where two headings read alike, the source gives them in different places.

Assay [1] deals with T1, IGF-1R (Homo sapiens, UniProt P08069).
T1 construct: purchased Upstate Co. 14-465
The experiment in a line: IGF-1R inhibitory activity (kinase reaction, time-resolved fluoroimmunoassay). The assay is classed as biochemical. Particulars: test compound 10 μmol/L. The method, boiled down: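 Compounds were tested at a single 10 μmol/L concentration. Each was incubated with recombinant IGF-1R (200 μg/L), 10 mmol/L ATP, MgCl2/MnCl2 and Na3VO4 (pH 7.5) on immobilized poly(Glu-Tyr) peptide for 30 min at 24° C. Eu-anti-phosphotyrosine time-resolved fluorescence (340/615 nm) gave relative activity against no-compound and no-enzyme wells, reported as % inhibition.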

Assay [2] has as its system NCI-H929. The experiment in a line: Cytostatic activity on human multiple myeloma cell line NCI-H929 (WST-1). The assay is classed as cell-based. The settings on record: for inhibition at 10 µM / inhibition at 1 µM: Homo sapiens, NCI-H929, 72 h; for inhibition at 10 µM: read-out: cytostatic rate (%) H929 (10 μmol/L); for inhibition at 1 µM: read-out: cytostatic rate (%) H929 (1 μmol/L). The method in brief: (§1)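 Cells pre-cultured 24 h at 37 °C, 5% CO2, then exposed 72 h to compound at final 1 or 10 μmol/L (0.1% DMSO). WST-1 added for 2 h, absorbance at 450 nm (ref 690 nm). Cytostatic rate = 100 minus relative growth, with DMSO control as 100% and blank as 0%.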

Assay [3] has as its system Colo205. Description: Cytostatic activity on human colon cancer cell line Colo205 (WST-1). It is filed as cell-based. Particulars: 10 μmol/L; for inhibition at 10 µM: Homo sapiens, COLO 205, 72 h, read-out: cytostatic rate (%) Colo205 (10 μmol/L). Here is the method:
(§2) The cytostatic rates of the test compound on the human pancreatic cancer cell line AsPC-1 and the human colon cancer cell line Colo205 were determined in the following manner.
(§3) For culturing AsPC-1, RPMI 1640 medium containing 20% fetal bovine serum, 1 mmol/L sodium pyruvate, 10 mmol/L HEPES, 4.5 g/L glucose and penicillin/streptomycin (1:1). The Colo205 cell was cultured using RPMI 1640 medium containing 10% fetal bovine serum, 1 mmol/L sodium pyruvate, 10 mmol/L HEPES, 4.5 g/L glucose and penicillin/streptomycin (1:1) was used. Each 80 μL of the AsPC-1 cell having a concentration of 5×10^4 cells/mL (or the Colo205 having a concentration of 5×10^4 cells/mL) was inoculated to wells of a TC MICROWELL 96F plate (Nalge Nunc International, Catalog No. 167008) and was cultured in a 5% carbon dioxide gas incubator at 37° C. for 24 hours. Each 20 μL of a solution of the test compound in DMSO which was prepared to make the final concentration to 1 μmol/L or 10 μmol/L, was added to each well. Each 20 μL of DMSO was added to the control well and the blank well to a final concentration of 0.1%. After adding the test compound, the cell was incubated in a 5% carbon dioxide gas incubator at 37° C. for 72 hours except for the blank well. After adding 20 μL of WST-1 reagent which was diluted to 50% by RPMI medium to each well, the cells were further incubated at 37° C. for 2 hours. Then, the absorbances at 450 nm (reference wavelength: 690 nm) were determined with a microplate spectrophotometer SPECTRA max 340PC. The cytostatic rate (%) was then determined in the similar manner to the above multiple myeloma cell lines.
In general terms: Tetrazolium assays rely on reduction of a dye to a coloured formazan, in cell work by metabolically active cells.

Assay [4] has as its system KMS-11. The experiment in a line: Cytostatic activity on human multiple myeloma cell line KMS-11 (WST-1). It is filed as cell-based. The settings on record: for inhibition at 10 µM / inhibition at 1 µM: Homo sapiens, KMS-11, 72 h; for inhibition at 10 µM: read-out: cytostatic rate (%) KMS-11 (10 μmol/L); for inhibition at 1 µM: read-out: cytostatic rate (%) KMS-11 (1 μmol/L). The method in brief:
as §1

Assay [5] relates to AsPC-1. The experiment in a line: Cytostatic activity on human pancreatic cancer cell line AsPC-1 (WST-1). The assay is classed as cell-based. Particulars: 10 μmol/L; for inhibition at 10 µM: Homo sapiens, ASPC1, 72 h, read-out: cytostatic rate (%) AsPC-1 (10 μmol/L). Here is the method:
as §2, §3

The mark [6] stands for this setting: IGF-1R active recombinant enzyme.
The mark [7] stands for this setting: NCI-H929 cells, test compound 1 μmol/L, WST-1.
The mark [8] stands for this setting: KMS-11 cells, test compound 1 μmol/L, WST-1.

T1 sequence (P08069 959-1367 limits assumed): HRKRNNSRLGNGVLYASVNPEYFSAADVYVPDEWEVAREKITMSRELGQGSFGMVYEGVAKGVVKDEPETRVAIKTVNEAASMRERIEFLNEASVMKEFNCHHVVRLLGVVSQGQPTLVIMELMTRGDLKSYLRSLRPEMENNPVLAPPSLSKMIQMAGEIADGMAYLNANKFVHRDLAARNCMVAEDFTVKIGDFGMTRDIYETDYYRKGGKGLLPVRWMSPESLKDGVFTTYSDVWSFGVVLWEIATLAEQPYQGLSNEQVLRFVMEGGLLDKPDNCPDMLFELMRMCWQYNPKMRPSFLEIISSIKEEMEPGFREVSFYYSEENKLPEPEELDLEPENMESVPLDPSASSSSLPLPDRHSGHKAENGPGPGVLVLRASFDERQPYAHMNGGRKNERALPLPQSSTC

With `Cn1cccc1C(=O)Nc1ccccc1/C=C/c1n[nH]c2ccccc12` [Compound 29, (E)-N-{2-[2-(1H-indazol-3-yl)vinyl]phenyl}-1-methyl-1H-pyrrole-2-carboxamide], the inhibition at 10 µM in assay [1] (setting [6]) amounted to 97.9%; in assay [2] (10 μmol/L, 72 hours) it was 117%; in assay [3], 114%; in assay [4] (10 μmol/L, 72 hours), 112%; in assay [5], 66.1%.
As to `Cc1ccsc1C(=O)Nc1ccccc1/C=C/c1n[nH]c2ccccc12` [Compound 41, (E)-N-{2-[2-(1H-indazol-3-yl)vinyl]phenyl}-3-methylthiophene-2-carboxamide], the inhibition at 10 µM in assay [1] (setting [6]) stood at 98.6%; in assay [2] (10 μmol/L, 72 hours), 121%; in assay [3], 115%; in assay [4] (10 μmol/L, 72 hours), 109%; in assay [5], 85.5%.
For `O=C(Nc1ccccc1/C=C/c1n[nH]c2ccccc12)c1cc2ccccc2s1` [Compound 46, (E)-N-{2-[2-(1H-indazol-3-yl)vinyl]phenyl}benzo[b]thiophene-2-carboxamide] the same measures were 97.8%, 118%, 112%, 115% and 120%.
Regarding `O=C(Nc1ccccc1/C=C/c1n[nH]c2ccccc12)c1ccccc1` [Compound 85, (E)-N-{2-[2-(1H-indazol-3-yl)vinyl]phenyl}benzamide], the inhibition at 10 µM in assay [1] came to 99.5%; in assay [2] (10 μmol/L, 72 hours), 134%; in assay [3], 116%; in assay [4] (10 μmol/L, 72 hours), 124%; in assay [5] it was 125%.
Consider `Cc1ccsc1C(=O)Nc1cc(C(=O)N2CCOCC2)ccc1/C=C/c1n[nH]c2ccccc12` [Compound 100, (E)-N-{2-[2-(1H-indazol-3-yl)vinyl]-5-(morpholin-4-ylcarbonyl)phenyl}-3-methylthiophene-2-carboxamide], for which the inhibition at 10 µM in assay [1] is 98.6%; in assay [2] (10 μmol/L, 72 hours), 122%; in assay [3], 121%; in assay [4] (10 μmol/L, 72 hours) it was 115%; in assay [5] it was 108%.
On the same counts, the results for `Cc1ccsc1C(=O)Nc1cc(CO)ccc1/C=C/c1n[nH]c2ccccc12` [Compound 108, (E)-N-{5-hydroxymethyl-2-[2-(1H-indazol-3-yl)vinyl]phenyl}-3-methylthiophene-2-carboxamide] are 95%, 123%, 121%, 110% and 87.9%.
For `COc1cccc(/C=C/c2n[nH]c3ccccc23)c1NC(=O)c1cccn1C` [Compound 109, (E)-N-{2-[2-(1H-indazol-3-yl)vinyl]-6-methoxyphenyl}-1-methyl-1H-pyrrole-2-carboxamide] the same measures were 103%, 116%, 123%, 117% and 114%.
Regarding `Cc1ccsc1C(=O)Nc1cc(C(=O)N2CCOCC2)ccc1/C=C/c1n[nH]c2ccccc12.Cl` [Compound 115, (E)-N-{2-[2-(1H-indazol-3-yl)vinyl]-5-(morpholin-4-ylcarbonyl)phenyl}-3-methylthiophene-2-carboxamide hydrochloride], the “inhibitory activity (%) at 10 μmol/L” value in assay [1] came out at 100.1%. In addition, the “cytostatic rate (%) H929 (10 μmol/L)” value in assay [2] (10 μmol/L, 72 hours) was determined as 120.0%. Further, the “cytostatic rate (%) Colo205 (10 μmol/L)” value in assay [3] (72 hours) came to 121.6%. Moreover, the “cytostatic rate (%) KMS-11 (10 μmol/L)” value in assay [4] (10 μmol/L, 72 hours) is 115.5%. Further, the “cytostatic rate (%) AsPC-1 (10 μmol/L)” value in assay [5] (72 hours) is given as 108.7%.
Consider `COc1c(OC(=O)CC(=O)N2CC[C@@H](O)C2)ccc(/C=C/c2n[nH]c3ccccc23)c1NC(=O)c1sccc1C` [Compound 343, (E)-N—(R)-{6-[2-(1H-indazol-3-yl)vinyl]-2-methoxy-3-[(3-hydroxypyrrolidine-1-ylcarbonyl)acetyloxy]phenyl}-3-methylthiophene-2-carboxamide], for which, in assay [1] (setting [6]), the “inhibitory activity (%) at 10 μmol/L” value is 98.4%. Also, in assay [2] (setting [7]), the “cytostatic rate (%) H929 (1 μmol/L)” value is reported as 127.5%. Moreover, the “cytostatic rate (%) KMS-11 (1 μmol/L)” value in assay [4] (setting [8]) was 79%.
Turning to `COc1c(OCCCN2CCC(O)CC2)ccc(/C=C/c2n[nH]c3ccccc23)c1NC(=O)c1sccc1C` [Compound 344, (E)-N-{3-[3-(4-hydroxypiperidin-1-yl)propoxy]-6-[2-(1H-indazol-3-yl)vinyl]-2-methoxyphenyl}-3-methylthiophene-2-carboxamide], the inhibition at 10 µM in assay [1] (setting [6]) stood at 97.4%. The inhibition at 1 µM is 133% in assay [2] (setting [7]) and 117% in assay [4] (setting [8]).
For `COc1c(OCCCN2CC[C@@H](N)C2)ccc(/C=C/c2n[nH]c3ccccc23)c1NC(=O)c1sccc1C` [Compound 346, (R)-(E)-N-{3-[3-(3-aminopyrrolidin-1-yl)propoxy]-6-[2-(1H-indazol-3-yl)vinyl]-2-methoxyphenyl}-3-methylthiophene-2-carboxamide], the inhibition at 10 µM in assay [1] (setting [6]) is 114%. Further, the inhibition at 1 µM in assay [2] (1 μmol/L, 72 hours) is 114%; in assay [4] (1 μmol/L, 72 hours) it was 97.2%.
`COc1c(OCCCN(C)CCO)ccc(/C=C/c2n[nH]c3ccccc23)c1NC(=O)c1sccc1C` [Compound 347, (E)-N-{3-{3-[(2-hydroxyethyl)methylamino]propoxy}-6-[2-(1H-indazol-3-yl)vinyl]-2-methoxyphenyl}-3-methylthiophene-2-carboxamide]: in assay [1] (setting [6]), the inhibition at 10 µM came to 106%. For the same compound, the inhibition at 1 µM in assay [2] (1 μmol/L, 72 hours) is 116%; in assay [4] (1 μmol/L, 72 hours), 116%.
In the case of `COc1c(OCCN2CCC(O)CC2)ccc(/C=C/c2n[nH]c3ccccc23)c1NC(=O)c1sccc1C` [Compound 349, (E)-{3-[2-(4-hydroxypiperidin-1-yl)ethoxy]-6-[2-(1H-indazol-3-yl)vinyl]-2-methoxyphenyl}-3-methylthiophene-2-carboxamide], the “inhibitory activity (%) at 10 μmol/L” value in assay [1] (setting [6]) is listed as 101.9%. Moreover, the “cytostatic rate (%) H929 (1 μmol/L)” value in assay [2] (1 μmol/L, 72 hours) turned out to be 116.3%. Also, the “cytostatic rate (%) KMS-11 (1 μmol/L)” value in assay [4] (1 μmol/L, 72 hours) came out at 117.2%.
For `COc1c(OCCCN2CCC(CO)CC2)ccc(/C=C/c2n[nH]c3ccccc23)c1NC(=O)c1sccc1C` [Compound 350, (E)-N-(3-{3-[4-(hydroxymethyl)piperidin-1-yl]propoxy}-6-[2-(1H-indazol-3-yl)vinyl]-2-methoxyphenyl)-3-methylthiophene-2-carboxamide], in assay [1] (setting [6]), the inhibition at 10 µM stood at 111%. Moreover, the inhibition at 1 µM in assay [2] (1 μmol/L, 72 hours) was determined as 117%; in assay [4] (1 μmol/L, 72 hours), 117%.
In the case of `Cn1ccnc1C(=O)Nc1ccccc1/C=C/c1n[nH]c2ccccc12` [Compound 352, (E)-N-{2-[2-(1H-indazol-3-yl)vinyl]phenyl}-1-methyl-1H-imidazole-2-carboxamide], the inhibition at 10 µM in assay [1] (setting [6]) was found to be 103%. The inhibition at 1 µM in assay [2] (1 μmol/L, 72 hours) worked out at 108%; in assay [4] (1 μmol/L, 72 hours), 84.8%.
On the same counts, the results for `Cc1c(Br)csc1C(=O)Nc1ccccc1/C=C/c1n[nH]c2ccccc12` [Compound 353, (E)-N-{2-[2-(1H-indazol-3-yl)vinyl]phenyl}-4-bromo-3-methylthiophene-2-carboxamide] are 102%, 104% and 77.4%.
